Laboratory results reported in patent publication US10273313B2, “Multimeric mannosides, a process for preparing the same and their uses as a drug” (CENTRE NATIONAL DE LA RECHERCHE SCIENTIFIQUE, priority 2012, dated 2019).

What was measured:
human Jurkat T-cell line = assay: Toxicity of 13 towards Jurkat T-cells; type: cell-based; conditions: 100 nM
[1] = system: CD-associated E. coli strain AIEC LF82; assay: Hemagglutination inhibition (HAI) with AIEC LF82, guinea pig erythrocytes; type: cell-based, Escherichia coli
Procedure: AIEC adhesion to the gut occurs through the binding of FimH adhesins to the mannosylated glycans of intestinal cells. This scenario was first mimicked here with the highly mannosylated glycocalyx of guinea pig erythrocytes.
A two-fold dilution series of the antagonists was added to wells containing guinea pig erythrocytes and AIEC LF82 bacteria. The formation of the cross-linked network (hemagglutination) due to the interaction of the E. coli FimH adhesins with the glycocalyx of the erythrocytes was prevented at a certain concentration of inhibitors. The lowest concentration at which hemagglutination is still inhibited is defined as the inhibition titer of the antagonist. HM was included in the assay to obtain a relative inhibitory concentration (rIC) for the antagonists by dividing the inhibitory concentration (IC) of the substance of interest by the value for HM. In fact, rICs are more accurate than rough inhibition titers to compare the potency of antagonists evaluated in different assays.

[2] = system: AIEC strain LF82 adhesion to T84 intestinal epithelial cells; assay: Adhesion assay on T84 cells with thiazolylaminomannosides (Example 22.3); type: cell-based, Escherichia coli
Procedure: T84 Intestinal Epithelial cells (overexpressing the receptor CEACAM6) were beforehand incubated for 1 h with the synthetic thiazolylaminomannosides 6-20 (examples 3-17) at different concentrations. Each compound was tested four times at concentrations of 0.1, 1, 10 and 100 μM.
The cells were then infected in the presence of inhibitory compounds by the AIEC strain of reference LF82 for 3 hours at a multiplicity of infection of 10 bacteria to a cell. After 3 h of incubation, the monolayer was washed and the number of AIEC bacteria associated with cells was counted. The level of adhesion of AIEC LF82 strain in the presence of inhibitors (residual adhesion) was expressed relatively to the level of adherence in the absence of any treatment (considered 100%) (FIG. 10).

Caco-2 cells = assay: Blockage of cytotoxic effect of microparticle-FimH, flow cytometry; type: cell-based; conditions: Caco2
From the text: It was shown that upon binding of FimH adhesin to uroplakin UPIIIa its cytoplasmic tail undergoes phosphorylation on a specific threonine residue by casein kinase II, followed by an elevation of intracellular calcium triggering apoptosis (Thumbikat, P.; Berry, R. E.; Zhou, G.; Billips, B. K.; Yaggie, R. E.; Zaichuk, T.; Sun, T.-T.; Schaeffer, A. J.; Klumpp, D. J. PLoS Pathog 2009, 5, e1000415). […] It is needed to mentioned that according to our observations that Caco2 cells, unlike human blood cells, (Bilyy R. O.; Shkandina, T.; Tomin, A.; Muñoz, L E.; Franz, S.; Antonyuk, V.; Kit, Y. Y.; Zirngibl, M.; Fürnrohr, B. G.; Janko, C.; Lauber, K.; Schiller, M.; Schett, G.; Stoika, R. S.; Herrmann, M., J. Biol. Chem. 2012, 287, 496-503) are very quickly converted from apoptotic to secondary necrotic (PI-positive). […]
Cell viability was assessed by a trypan blue exclusion test. […]
Apoptotic cells were identified by using annexin V-FITC and PI, according to the manufacturer's protocol. […] Cells were then resuspended in a solution of annexin V-FITC and PI prepared in Ringer buffer, incubated 30 min at 4° C. in the dark, and analyzed on a FACS scan flow cytometer (BD Biosciences). A minimum of 10,000 events per sample was recorded. […]

[3] = system: AIEC LF82 bacteria on colonic tissue from transgenic mice expressing human CEACAM6; assay: Ex-vivo adhesion assay on colonic tissue of CEABAC10 mice; set-up: species or system CEABAC10 transgenic mice
Procedure: E. coli strain LF82 was isolated from a chronic ileal lesion of a patient with Crohn's disease (CD). Bacteria were grown routinely in Luria-Bertani (LB) broth overnight at 37° C.
Adhesion assay of AIEC LF82 bacteria were performed using colonic tissue from transgenic mice expressing the human CEACAM6 protein (C. H. Chan, C. P. Stanners “Novel mouse model for carcinoembryonic antigen-based therapy”, Mol Ther. 2004; 9, 775-785). Briefly, 10 to 12-week-old FVB/N CEABAC10 transgenic mice were anesthetized, euthanized by cervical dislocation and colons were removed. Colons were washed twice in phosphate buffer saline (PBS) and were segmented in 4 independent loops of ≈0.6 cm. A volume of 100 μL of LF82 bacteria at 2×10^6 bacteria/mL in PBS or of a mix of LF82 bacteria+D-mannose (1 μmol and 10 μmol) or compound 13 (0.1 μmol and 0.01 μmol) were injected into the loops. Loops were incubated 1 h at 37° C. in an atmosphere containing 5% of CO2, and then opened and washed 4 times in PBS. Tissues were homogenized, appropriately diluted and plated onto Luria-Bertani agar plates containing ampicillin (100 μg/mL) and erythromycin (20 μg/mL) to select AIEC LF82 bacteria.
Entire colons from CEABAC10 mice were collected and washed two times with PBS. The colon was divided in 4 isolated loops and 100 μL of a bacterial suspension containing […] bacteria/mL with or without inhibitory compounds were injected into the loops. D-mannose was tested at a dose of 1 and 10 μmol and monovalent 13 was tested at a dose of 0.01 and 0.1 μmol. After a 1 h-period of incubation, samples were extensively washed and homogenized to numerate adherent bacteria. Bacterial adhesion was expressed as percentages of residual adhesion (100% corresponds to the adhesion in absence of any compound).

FimH [4] = biological target: T1, FimH (Escherichia coli, UniProt P08191); type: binding; conditions: competitive ELISA
Procedure: Journal of the American Society for Mass Spectrometry, 2009. […] Tested compounds were added to wells following with FimH treatment.
Plates were coated with 100 μl of 10 mg/ml solution of RNAse-B in 100 mM carbonate/bicarbonate buffer pH 9.6. […] 2 h. Then washed three times with 10 mM PBS containing 0.05% Tween-20. […] Wells were washed three times with 10 mM PBS+0.05% Tween-20. 100 μl of anti-body conjugated to horseradish peroxidase (1:5000) was added in buffer and incubated for 1 h at room temperature. Then washed three times with 10 mM PBS+0.05% Tween-20. Added 100 μl of TMB and incubated in dark for 2-5 min. The reaction was stopped with 100 μl/well 1N sulfuric acid. Plate absorbance was analyzed at 450 nm using microplate reader.
Target sequence in this assay (P08191 22-300): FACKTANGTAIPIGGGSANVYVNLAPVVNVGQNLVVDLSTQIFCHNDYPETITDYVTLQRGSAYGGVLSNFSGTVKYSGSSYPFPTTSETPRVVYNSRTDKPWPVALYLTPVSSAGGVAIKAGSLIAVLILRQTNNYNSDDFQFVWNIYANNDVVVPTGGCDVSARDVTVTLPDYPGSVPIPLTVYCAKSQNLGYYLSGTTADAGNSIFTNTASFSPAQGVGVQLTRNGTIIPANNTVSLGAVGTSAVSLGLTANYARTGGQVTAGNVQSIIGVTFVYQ

lectin domain of FimH = biological target: T2, lectin domain of FimH (Escherichia coli, UniProt P08191); assay: Surface plasmon resonance solution competition assay; type: binding; conditions: solution affinity
T2 construct: The lectin domain of FimH was expressed as described previously and purified at pH 4.0; made in house
T2 sequence (P08191 22-179): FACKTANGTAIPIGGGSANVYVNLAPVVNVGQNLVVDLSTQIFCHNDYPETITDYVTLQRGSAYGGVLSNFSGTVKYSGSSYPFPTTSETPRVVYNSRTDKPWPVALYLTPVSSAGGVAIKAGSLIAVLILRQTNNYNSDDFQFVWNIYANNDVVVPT
Procedure: The affinity of the compounds was first evaluated and then measured in a surface plasmon resonance solution competition assay. The lectin domain of FimH was expressed as described previously and purified at pH 4.0 in 50 mM HCOOH on a SPFF (sulfopropyl fast flow) ion exchange column (GE Healthcare). A CM5 sensor chip (Biacore, GE Healthcare) has been coated with a layer of amino-functionalized monovalent heptyl mannoside to 60 RU (response units) and the kinetics of FimH binding to the sensor chip has been determined. All data collection have been performed in HBS buffer complemented with 3 mM EDTA and 0.01% Tween20. Regeneration was done with a single 10 s injection of 100 mM NaOH in water.
The solution affinity provided by the Biacore software uses the equation (B−A−Kd)/2+(0.25*(A+B+Kd)^2−A*B)^0.5, with B presenting the uninhibited concentration of FimH, and A the variable compound concentration.

FimH [5] = biological target: T1, FimH; assay: Isothermal titration calorimetry of compound 6; type: binding
Procedure: For compound 6 (example 3), the enthalpy, the affinity equilibrium constant Ka and the molar ratio have moreover been measured using ITC. Integrated heat effects were analyzed by nonlinear regression using a single-site binding model (Origin 7.0). The experimental data fitted to a theoretical titration curve gave the association constant (Ka), the enthalpy of binding (ΔH) and the molar ratio n. The entropic contribution to the affinity and the change in Gibbs free energy (ΔG) have been calculated from the equation ΔG=ΔH−TΔS=−RTlnKa, where T is the absolute temperature and R is the molar gas constant (8.314 J·mol−1·K−1).
Target sequence in this assay (P08191 22-179): as above

UTI89 E. coli = assay: Inhibition of haemagglutination (Example 19); type: cell-based, Escherichia coli; conditions: two-fold dilution from 1 mM
Procedure: Interaction of E. coli FimH adhesins with the glycocalyx of guinea pig erythrocytes forms a cross-linked network into the wells. Glycoconjugates added in a two-fold dilution series prevents the agglutination reaction. The inhibition titer is defined as the lowest concentration of the glycoconjugate at which haemagglutination is still inhibited. UTI89 E. coli were grown statically overnight in LB at 37° C., washed three times in ice-cold phosphate-buffered saline and resolubilized. A two-fold dilution of glycoconjugates was prepared in 25 μL 20 mM HEPES pH 7.4 with 150 mM NaCl, starting from 1 mM as the highest concentration. The bacterial solution (25 μL) was added to the two-fold dilution series of the compound. Finally 50 μl of guinea pig red blood cells, washed in buffer and diluted to 5%, were added to a final 100 μL and left on ice for 30 min. before read-out. Due to serial dilutions, the maximal error is ±one well, or a factor two (FIG. 2).

human Jurkat cells = assay: Prevention of FimH-induced apoptosis of Jurkat cells (24 h)
Procedure: Eventually, we tested the ability of mannose-based inhibitors to prevent the induction of cell death of human Jurkat cells under the treatment with FimH. We cultures cells with the indicated compound for 24 h and counter percentage of viable (AnV−/Pi−), apoptotic (AnV+/Pi−) and necrotic cells (AnV+/PI+). […] 2. […] 3.
Apoptosis was induced by UV-B irradiation with 90 mJ/cm^2, apoptosis of human PMN cells was induced by 24 h aging. To quantify the rate of apoptosis, cells were analyzed by flow cytometry or fluorescent microscopy. Amongst other features, apoptosis is characterized by blebbing of the cellular membrane, leading to a decrease in the forward scatter (FSC) and an increase in the sideward scatter (SSC). For detection of phosphatidylserine (PS) exposure on the cell surface staining with FITC conjugated annexin V (Böhringer, Mannheim, Germany) in combination with propidium iodide (PI) (AxV/PI) was performed. 200.000 cells were stained for 30 minutes at 4° C. with 200 ng of AxV-FITC and 500 ng propidium iodide (PI) in 500 μl Ringer's solution [Nicoletti, Migliorati, Pagliacci, Grignani and Riccardi, A rapid and simple method for measuring thymocyte apoptosis by propidium iodide staining and flow cytometry. J Immunol Methods, 1991. 139.271-9]. The samples were immediately analyzed by flow cytometry of fluorescent microscopy.

| SMILES | Toxicity towards human blood cells (Jurkat T-cell line) (human Jurkat T-cell line) | Inhibitory potency in HAI (in words) [1] | Residual adhesion ([2]; 0.1 μM) [%] | Inhibitory effect on adhesion ([2]; 100 nM) | AIEC remaining attached to the cells (residual adhesion) ([2]; 1 μM) [%] | Residual adhesion ([2]; 10 μM) [%] | rIC relative to HM ([2]; dose-dependent inhibition similar to HM at 100-fold lower concentration) | Effect on amount of dead cell in population (Caco-2 cells; 100 nM alone) | Dead cells in population (Caco-2 cells; co-treatment with microparticles-FimH and 100 nM) [%] | Efficiency relative to D-mannose [3] [fold] | Bacterial adhesion ([3]; 0.1 μmol, 1 h) | Level of inhibition compared to the HM reference (FimH [4]) | Concentration blocking FimH binding towards oligomannose glycans (FimH [4]; RNAseB substrate) [nM] | Kd (lectin domain of FimH; measurement 1) [nM] | Kd (lectin domain of FimH; measurement 2) [nM] | Kd (FimH [5]) [nM] | Inhibitory potency in haemagglutination (FIG. 2) (UTI89 E. coli) | Prevention of apoptosis induction by FimH (human Jurkat cells; 500 nM) | Toxicity to Jurkat cells (human Jurkat cells; tested concentrations, 24 h) |
| --- | --- | --- | --- | --- | --- | --- | --- | --- | --- | --- | --- | --- | --- | --- | --- | --- | --- | --- | --- |
| Cc1nc(-c2cnccn2)sc1C(=O)c1cnc(N[C@H]2OC(CO)[C@@H](O)[C@H](O)C2O)s1 (mixture of isomers) [Compound 13, 2-(α-D-mannopyranosyl)amino-5-(4-methyl-2-(pyrazin-2-yl)thiazole-5-carbonyl)thiazole] | nontoxic | second most potent compound | 57.6 | significant inhibitory effect | 14 | 2.12 | ~0.01 | no significant effect | 16.5 | 100 | significant decrease | significantly higher level of inhibition | 5 | – | – | – | – | – | – |
| CC(=O)c1cnc(N[C@H]2O[C@H](CO)[C@@H](O)[C@H](O)[C@@H]2O)s1 [Compound 6, 5-acetyl-2-((α-D-mannopyranosyl)amino)thiazole] | – | less potent than HM | – | – | – | – | – | – | – | – | – | – | – | 216 | 220 ± 7.71 | 197 | equivalent to the one for HM | effectively prevented apoptosis induction | not toxic |
